Reference: ChEMBL document CHEMBL3045810, “Synthesis and evaluation of 4-(substituted)-acetylamino-3-mercapto-5-(4-substituted) phenyl-1,2,4-triazole derivatives as antimicrobial agents” (2012)
Activity calls are given as the source filed them. The rule behind the calls is not given here.

Tests used:
Fusarium oxysporum [1] = experiment: Antifungal activity against Fusarium oxysporum MTCC 2087 at 30 ug/ml by paper disk diffusion method; assay type: functional; settings: read-out: DIZ
Candida albicans [2] = experiment: Antifungal activity against Candida albicans MTCC 227 at 50 ug/ml by paper disk diffusion method; assay type: functional; settings: read-out: DIZ
Escherichia coli [3] = experiment: Antibacterial activity against Escherichia coli ATCC 8793 at 70 ug/ml after 24 hr by paper disk diffusion method; assay type: functional; settings: ATCC 8793, 24 h, read-out: DIZ
Staphylococcus aureus [4] = experiment: Antibacterial activity against Staphylococcus aureus ATCC 25923 at 30 ug/ml after 24 hr by paper disk diffusion method; assay type: functional; settings: ATCC 25923, 24 h, read-out: DIZ
Pseudomonas aeruginosa [5] = experiment: Antibacterial activity against Pseudomonas aeruginosa ATCC 27853 at 70 ug/ml after 24 hr by paper disk diffusion method; assay type: functional; settings: ATCC 27853, 24 h, read-out: DIZ
Candida albicans [6] = experiment: Antifungal activity against Candida albicans MTCC 227 at 30 ug/ml by paper disk diffusion method; assay type: functional; settings: read-out: DIZ
Escherichia coli [7] = experiment: Bactericidal activity against Escherichia coli ATCC 8793; assay type: functional, organism-based
Fusarium oxysporum [8] = experiment: Antifungal activity against Fusarium oxysporum MTCC 2087 at 50 ug/ml by paper disk diffusion method; assay type: functional; settings: read-out: DIZ
Pseudomonas aeruginosa [9] = experiment: Antibacterial activity against Pseudomonas aeruginosa ATCC 27853 at 50 ug/ml after 24 hr by paper disk diffusion method; assay type: functional; settings: ATCC 27853, 24 h, read-out: DIZ
Escherichia coli [10] = experiment: Antibacterial activity against Escherichia coli ATCC 8793 at 30 ug/ml after 24 hr by paper disk diffusion method; assay type: functional; settings: ATCC 8793, 24 h, read-out: DIZ
Bacillus subtilis [11] = experiment: Antibacterial activity against Bacillus subtilis ATCC 6633 at 30 ug/ml after 24 hr by paper disk diffusion method; assay type: functional; settings: ATCC 6633, 24 h, read-out: DIZ
Fusarium oxysporum [12] = experiment: Fungicidal activity against Fusarium oxysporum MTCC 2087; assay type: functional, organism-based
Escherichia coli [13] = experiment: Antibacterial activity against Escherichia coli ATCC 8793 at 50 ug/ml after 24 hr by paper disk diffusion method; assay type: functional; settings: ATCC 8793, 24 h, read-out: DIZ
Bacillus subtilis [14] = experiment: Bactericidal against Bacillus subtilis ATCC 6633; assay type: functional, organism-based
Pseudomonas aeruginosa [15] = experiment: Antibacterial activity against Pseudomonas aeruginosa ATCC 27853 at 30 ug/ml after 24 hr by paper disk diffusion method; assay type: functional; settings: ATCC 27853, 24 h, read-out: DIZ
Fusarium oxysporum [16] = experiment: Antifungal activity against Fusarium oxysporum MTCC 2087 at 70 ug/ml by paper disk diffusion method; assay type: functional; settings: read-out: DIZ
Aspergillus niger [17] = experiment: Antifungal activity against Aspergillus niger MTCC 3323 at 50 ug/ml by paper disk diffusion method; assay type: functional; settings: read-out: DIZ
Bacillus subtilis [18] = experiment: Antibacterial activity against Bacillus subtilis ATCC 6633 at 70 ug/ml after 24 hr by paper disk diffusion method; assay type: functional; settings: ATCC 6633, 24 h, read-out: DIZ
Staphylococcus aureus [19] = experiment: Bactericidal activity against Staphylococcus aureus ATCC 25923; assay type: functional, organism-based
Staphylococcus aureus [20] = experiment: Antibacterial activity against Staphylococcus aureus ATCC 25923 at 50 ug/ml after 24 hr by paper disk diffusion method; assay type: functional; settings: ATCC 25923, 24 h, read-out: DIZ
Pseudomonas aeruginosa [21] = experiment: Bactericidal activity against Pseudomonas aeruginosa ATCC 27853; assay type: functional, organism-based
Bacillus subtilis [22] = experiment: Antibacterial activity against Bacillus subtilis ATCC 6633 at 50 ug/ml after 24 hr by paper disk diffusion method; assay type: functional; settings: ATCC 6633, 24 h, read-out: DIZ
Aspergillus niger [23] = experiment: Antifungal activity against Aspergillus niger MTCC 3323 at 70 ug/ml by paper disk diffusion method; assay type: functional; settings: read-out: DIZ
Aspergillus niger [24] = experiment: Fungicidal activity against Aspergillus niger MTCC 3323; assay type: functional, organism-based
Staphylococcus aureus [25] = experiment: Antibacterial activity against Staphylococcus aureus ATCC 25923 at 70 ug/ml after 24 hr by paper disk diffusion method; assay type: functional; settings: ATCC 25923, 24 h, read-out: DIZ
Candida albicans [26] = experiment: Antifungal activity against Candida albicans MTCC 227 at 70 ug/ml by paper disk diffusion method; assay type: functional; settings: read-out: DIZ
Aspergillus niger [27] = experiment: Antifungal activity against Aspergillus niger MTCC 3323 at 30 ug/ml by paper disk diffusion method; assay type: functional; settings: read-out: DIZ
Candida albicans [28] = experiment: Fungicidal activity against Candida albicans MTCC 227; assay type: functional, organism-based

| Structure (SMILES) | zone of inhibition at 30 µg/mL (Fusarium oxysporum [1]) [mm] | zone of inhibition at 50 µg/mL (Candida albicans [2]) [mm] | zone of inhibition at 70 µg/mL (Escherichia coli [3]) [mm] | zone of inhibition at 30 µg/mL (Staphylococcus aureus [4]) [mm] | zone of inhibition at 70 µg/mL (Pseudomonas aeruginosa [5]) [mm] | zone of inhibition at 30 µg/mL (Candida albicans [6]) [mm] | zone of inhibition at 50 µg/mL (Fusarium oxysporum [8]) [mm] | zone of inhibition at 50 µg/mL (Pseudomonas aeruginosa [9]) [mm] | zone of inhibition at 30 µg/mL (Escherichia coli [10]) [mm] | zone of inhibition at 30 µg/mL (Bacillus subtilis [11]) [mm] | zone of inhibition at 50 µg/mL (Escherichia coli [13]) [mm] | zone of inhibition at 30 µg/mL (Pseudomonas aeruginosa [15]) [mm] | zone of inhibition at 70 µg/mL (Fusarium oxysporum [16]) [mm] | zone of inhibition at 50 µg/mL (Aspergillus niger [17]) [mm] | zone of inhibition at 70 µg/mL (Bacillus subtilis [18]) [mm] | zone of inhibition at 50 µg/mL (Staphylococcus aureus [20]) [mm] | zone of inhibition at 50 µg/mL (Bacillus subtilis [22]) [mm] | zone of inhibition at 70 µg/mL (Aspergillus niger [23]) [mm] | zone of inhibition at 70 µg/mL (Staphylococcus aureus [25]) [mm] | zone of inhibition at 30 µg/mL (Aspergillus niger [27]) [mm] | other results |
| --- | --- | --- | --- | --- | --- | --- | --- | --- | --- | --- | --- | --- | --- | --- | --- | --- | --- | --- | --- | --- | --- |
| CCCCN(CCCC)CC(=O)Nn1c(S)nnc1-c1ccc(OC)cc1 | 13.1 | 18.3 | 17.3 | 13.1 | 18.2 | 16.1 | 14.3 | 16.2 | 13 | 11.2 | 15.1 | 15.1 | 16.2 | 20.1 | 15.2 | 15.2 | 13 | 22.4 | 17.2 | 18.1 | Activity (Escherichia coli [7]): Active; Activity (Fusarium oxysporum [12]): Active; Activity (Bacillus subtilis [14]): Active; Activity (Staphylococcus aureus [19]): Active; Activity (Pseudomonas aeruginosa [21]): Active; Activity (Aspergillus niger [24]): Active; zone of inhibition at 70 µg/mL (Candida albicans [26]): 20.4 mm; Activity (Candida albicans [28]): Active |
| CCCCCN(CCCCC)CC(=O)Nn1c(S)nnc1-c1ccc(C)cc1 | 7.07 | 8.1 | 8.13 | 6.03 | 9.17 | 7.26 | 8.23 | 8.13 | 6.26 | 6.46 | 7.16 | 7.13 | 9.13 | 11.3 | 8.23 | 7.1 | 7.2 | 12.1 | 8.16 | 9.06 | Activity (Escherichia coli [7]): Active; Activity (Fusarium oxysporum [12]): inactive; Activity (Bacillus subtilis [14]): Active; Activity (Staphylococcus aureus [19]): Active; Activity (Pseudomonas aeruginosa [21]): Active; Activity (Aspergillus niger [24]): inactive; zone of inhibition at 70 µg/mL (Candida albicans [26]): 9.23 mm; Activity (Candida albicans [28]): inactive |
| CCCN(CCC)CC(=O)Nn1c(S)nnc1-c1ccc(C)cc1 | 7.26 | 10.5 | 11.1 | 8.2 | 11.1 | 9.13 | 8.4 | 10.2 | 9.33 | 8.93 | 10.3 | 9.56 | 9.96 | 12.3 | 10.1 | 9.33 | 9.86 | 14.4 | 10 | 11.2 | Activity (Escherichia coli [7]): Active; Activity (Fusarium oxysporum [12]): Active; Activity (Bacillus subtilis [14]): Active; Activity (Staphylococcus aureus [19]): Active; Activity (Pseudomonas aeruginosa [21]): Active; Activity (Aspergillus niger [24]): Active; zone of inhibition at 70 µg/mL (Candida albicans [26]): 11.3 mm; Activity (Candida albicans [28]): Active |
| Clc1ccccc1C(c1ccccc1)(c1ccccc1)n1ccnc1 [CLOTRIMAZOLE] | 19.3 | – | – | – | – | 21.9 | – | – | – | – | – | – | – | – | – | – | – | – | – | 22.6 | – |
| CCCCN(C)CC(=O)Nn1c(S)nnc1-c1ccc(OC)cc1 | 6.16 | 12.2 | 9.6 | 10.2 | 12.2 | 11.1 | 6.26 | 10.4 | 7.2 | 9.27 | 8.63 | 9.2 | 7.23 | 11.1 | 11.2 | 11 | 10.2 | 13.2 | 13.5 | 10.6 | Activity (Escherichia coli [7]): Active; Activity (Fusarium oxysporum [12]): Active; Activity (Bacillus subtilis [14]): Active; Activity (Staphylococcus aureus [19]): Active; Activity (Pseudomonas aeruginosa [21]): Active; Activity (Aspergillus niger [24]): Active; zone of inhibition at 70 µg/mL (Candida albicans [26]): 14.2 mm; Activity (Candida albicans [28]): Active |
| COc1ccc(-c2nnc(S)n2NC(=O)CN(C(C)C)C(C)C)cc1 | 7.26 | 12.1 | 12.4 | 8.2 | 13.3 | 11.2 | 8.13 | 12.3 | 9.43 | 8.5 | 10.3 | 11.1 | 9.06 | 11.3 | 10.5 | 9.26 | 9.3 | 13 | 10.3 | 10.1 | Activity (Escherichia coli [7]): Active; Activity (Fusarium oxysporum [12]): inactive; Activity (Bacillus subtilis [14]): Active; Activity (Staphylococcus aureus [19]): Active; Activity (Pseudomonas aeruginosa [21]): Active; Activity (Aspergillus niger [24]): inactive; zone of inhibition at 70 µg/mL (Candida albicans [26]): 13.8 mm; Activity (Candida albicans [28]): inactive |
| CCCCCN(CCCCC)CC(=O)Nn1c(S)nnc1-c1ccc(OC)cc1 | 6.17 | 11.3 | 10.2 | 7.2 | 8.1 | 10.1 | 7.21 | 7.13 | 8.97 | 6.13 | 9.26 | 6.23 | 8.2 | 12.2 | 8.03 | 8.13 | 7.26 | 13 | 9.16 | 11.2 | Activity (Escherichia coli [7]): Active; Activity (Fusarium oxysporum [12]): inactive; Activity (Bacillus subtilis [14]): Active; Activity (Staphylococcus aureus [19]): Active; Activity (Pseudomonas aeruginosa [21]): Active; Activity (Aspergillus niger [24]): inactive; zone of inhibition at 70 µg/mL (Candida albicans [26]): 12.2 mm; Activity (Candida albicans [28]): inactive |
| NCC[C@H](O)C(=O)N[C@@H]1C[C@H](N)[C@@H](O[C@H]2O[C@H](CN)[C@@H](O)[C@H](O)[C@H]2O)[C@H](O)[C@H]1O[C@H]1O[C@H](CO)[C@@H](O)[C@H](N)[C@H]1O [AMIKACIN] | – | – | – | – | – | – | – | – | 21.3 | – | – | 22.1 | – | – | – | – | – | – | – | – | – |
| CN[C@H](CC(C)C)C(=O)N[C@H]1C(=O)N[C@@H](CC(N)=O)C(=O)N[C@H]2C(=O)N[C@H]3C(=O)N[C@H](C(=O)N[C@H](C(=O)O)c4cc(O)cc(O)c4-c4cc3ccc4O)[C@H](O)c3ccc(c(Cl)c3)Oc3cc2cc(c3O[C@@H]2O[C@H](CO)[C@@H](O)[C@H](O)[C@H]2O[C@H]2C[C@](C)(N)[C@H](O)[C@H](C)O2)Oc2ccc(cc2Cl)[C@H]1O [VANCOMYCIN] | – | – | – | 18.2 | – | – | – | – | – | 17.4 | – | – | – | – | – | – | – | – | – | – | – |
| CCCCN(C)CC(=O)Nn1c(S)nnc1-c1ccc(C)cc1 | 6.03 | 9.23 | 9.2 | 7.4 | 10.3 | 8.16 | 7.2 | 9.33 | 7.26 | 7.43 | 8.56 | 8.2 | 8.13 | 8.26 | 9.23 | 8.23 | 8.2 | 9.17 | 9.26 | 7 | zone of inhibition at 70 µg/mL (Candida albicans [26]): 10.1 mm |
